Entries after “also recorded” stand apart in the source; their conditions may differ.

This assay has as its system fibroblasts. The assay can be described thus: Fibroblast attachment to tresylated titanium wire grafted with P-15. Type of assay: cell-based. The following applies: then P-15 1 mg/ml in 100 mM phosphate buffer pH 7.4 overnight, compared with control wire not exposed to P-15. As to the method: In this Example, titanium wire was treated with tresylation and attachment of P-15, followed by exposure to fibroblasts. The titanium wire was washed thoroughly in ethanol, then soaking in a 0.1 N NaOH solution for 15 minutes, followed by washing 10× with DI H2O. The surface was then rinsed in full strength H2O2, then soaked in 50% H2O2 overnight. The wire was then placed in a tresylation reaction mixture of trifluoroethanesulfonyl chloride (200 ul), pyridine (1.0 ml), and tetrahydrofuran (20 ml) overnight, followed by washing in DI H2O. The surface was then placed in a solution containing P-15 1 mg/ml in 100 mM phosphate buffer, pH 7.4, overnight. Following this treatment, the wire was again rinsed in DI H2O, then placed in a cell culture which contained fibroblasts that had been fluorescently labeled for 24 hours.
As a control, a second titanium wire was treated identically to the first wire, described above, except that it was not exposed to P-15 before being exposed to the fluorescently-labeled cells.

For “G-T-P-G-P-Q-G-I-A-G-Q-R-G-V-V (GTPGPQGIAGQRGVV) [P-15, collagen receptor agonist]”, the “attachment of fluorescently labeled fibroblasts to the wire (photomicrographs, FIG. 1)” value is “increased fibroblast binding; also recorded: far more attached cells”.
